Measurements: US7473700B2, “1,2,4-triazole derivatives, processes for the preparation thereof, and pharmaceutical compositions containing the same” (CJ Corporation, priority 2002, dated 2009)

Key:
COX-2 = target: T1, COX-2 (Mus musculus, UniProt Q05769); assay: Assay for the COX-2 inhibitory activity using RAW 264.7 cell line (PGE2 inhibition); format: cell-based; settings: RAW264.7, 10 nM test compound, RAW 264.7 cells, interferon γ and LPS, 18 hours, read-out: Cyclooxygenase (COX) Inhibition (%) COX-2 (10 nM)
T1 construct: host or cells: RAW 264.7 cells, aspirin-pretreated, then induced with interferon gamma and LPS
T1 sequence (Q05769 18-604): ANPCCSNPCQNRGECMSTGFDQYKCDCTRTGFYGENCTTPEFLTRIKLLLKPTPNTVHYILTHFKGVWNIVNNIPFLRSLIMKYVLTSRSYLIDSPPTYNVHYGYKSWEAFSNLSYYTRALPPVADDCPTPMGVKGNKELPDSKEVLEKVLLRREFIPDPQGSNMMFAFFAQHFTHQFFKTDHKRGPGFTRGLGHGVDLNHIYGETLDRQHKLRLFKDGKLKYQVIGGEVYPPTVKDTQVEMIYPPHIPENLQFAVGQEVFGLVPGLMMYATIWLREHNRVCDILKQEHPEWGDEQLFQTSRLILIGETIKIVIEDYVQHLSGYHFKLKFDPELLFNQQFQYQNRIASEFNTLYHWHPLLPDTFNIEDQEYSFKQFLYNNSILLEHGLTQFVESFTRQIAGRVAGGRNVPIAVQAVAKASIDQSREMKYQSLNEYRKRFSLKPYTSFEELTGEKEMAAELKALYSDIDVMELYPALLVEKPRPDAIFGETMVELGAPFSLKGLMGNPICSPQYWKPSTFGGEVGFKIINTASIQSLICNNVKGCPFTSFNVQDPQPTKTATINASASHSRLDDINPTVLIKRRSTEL
Description: Each well was treated with 250 μM of aspirin and incubated at 37° C. for 2 hours. After the culture media were replaced with new culture media, the new culture media were treated with a test compound (10 nM) and incubated for 30 minutes. Then, each well was treated with interferon γ (100 units/ml) and lipopolysaccharide (LPS, 100 ng/ml) and incubated for 18 hours. The culture media were transferred to other test tubes. The concentration of PGE2 was quantified by means of the EIA kit (Cayman Chemicals).
(§1) The percentages of the COX inhibition were calculated according to the following equation: % Inhibition=(concentration of PGE2 in test compound-untreated sample−concentration of PGE2 in test compound-treated sample)/(concentration of PGE2 in test compound-untreated sample)×100

COX-1 = target: T2, COX-1 (Homo sapiens, UniProt P23219); assay: Assay for the COX-1 inhibitory activity using U-937 (PGE2 inhibition); format: cell-based; settings: 1 μM test compound; U-937 human lymphoma cells; PGE2 after arachidonic acid; read-out: Cyclooxygenase (COX) Inhibition (%) COX-1 (1 μM)
T2 construct: host or cells: U-937 human lymphoma cells
T2 sequence (P23219 24-599): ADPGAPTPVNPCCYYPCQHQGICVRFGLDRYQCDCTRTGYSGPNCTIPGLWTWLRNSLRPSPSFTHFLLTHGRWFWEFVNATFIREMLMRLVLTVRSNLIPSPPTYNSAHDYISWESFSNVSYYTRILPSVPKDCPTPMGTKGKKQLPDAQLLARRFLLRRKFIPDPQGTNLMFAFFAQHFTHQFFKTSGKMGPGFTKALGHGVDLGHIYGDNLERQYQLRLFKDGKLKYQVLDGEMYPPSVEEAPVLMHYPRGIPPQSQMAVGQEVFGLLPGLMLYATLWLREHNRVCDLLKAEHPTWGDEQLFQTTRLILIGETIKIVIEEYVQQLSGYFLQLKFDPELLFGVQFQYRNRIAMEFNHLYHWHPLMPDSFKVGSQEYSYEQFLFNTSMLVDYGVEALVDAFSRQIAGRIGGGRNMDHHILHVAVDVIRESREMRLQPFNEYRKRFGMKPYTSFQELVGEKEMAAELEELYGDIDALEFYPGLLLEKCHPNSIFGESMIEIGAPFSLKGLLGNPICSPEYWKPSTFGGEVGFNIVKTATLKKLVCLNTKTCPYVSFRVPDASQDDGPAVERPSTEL
Description: The collected cells were diluted with HBSS (×1, Hank's balanced salt solution) to a concentration of 1×10^6 cells/ml. 1 ml of the dilute cell solution was placed into each well of 12-well plates. 5 μl of 1 μM solution of a test compound in DMSO and 5 μl of DMSO as a control were added to the wells. The wells were incubated in CO2 incubator at 37° C. for 15 minutes. Separately, 10 mM stock solution of arachidonic acid in ethanol was diluted ten times in ethanol to prepare 1 mM solution of arachidonic acid. Arachidonic acid acts as a substrate. 10 μl of the 1 mM solution of arachidonic acid was added to each well and incubated at CO2 incubator at 37° C. for 30 minutes. The cell solution of each well was placed in a centrifuge test tube and centrifuged at 10,000 rpm at 4° C. for 5 minutes. The concentration of PGE2 in the collected cells and the supernatant was quantified by means of a monoclonal kit (Cayman Chemicals). The percentages of PGE2 inhibition in a group of the test compound-treated cells in relation to a group of the DMSO-treated cells were calculated. Based on the calculated values, the COX-1 inhibitory activities were evaluated.
as §1

Compound	inhibition at 0.01 µM (COX-2)	inhibition at 1 µM (COX-1)
N#CCOc1nc(-c2ccc(F)cc2)n(-c2ccc(S(N)(=O)=O)cc2)n1 [Example 42, 4-[3-cyanomethoxy-5-(4-fluorophenyl)-1,2,4-triazole-1-yl]-benzenesulfonamide]	13.3%	26.6%
NS(=O)(=O)c1ccc(-n2nc(S)nc2-c2ccccc2)cc1 [Example 21, 4-(3-mercapto-5-phenyl-1,2,4-triazole-1-yl)-benzenesulfonamide]	12.6%	25.7%
NS(=O)(=O)c1ccc(-n2nc(OC3CCCC3)nc2-c2ccc(F)cc2)cc1 [Example 38, 4-[3-cyclopentyloxy-5-(4-fluorophenyl)-1,2,4-triazole-1-yl]-benzenesulfonamide]	33.1%	17.4%
CCOc1nc(-c2ccccc2)n(-c2ccc(S(N)(=O)=O)cc2)n1 [Example 31, 4-(3-ethoxy-5-phenyl-1,2,4-triazole-1-yl)-benzenesulfonamide]	16.4%	15.5%
C#CCSc1nc(-c2ccccc2)n(-c2ccc(S(N)(=O)=O)cc2)n1 [Example 45, 4-(3-prop-2-ynylthio-5-phenyl-1,2,4-triazole-1-yl)-benzenesulfonamide]	13.3%	23.4%
CSc1nc(-c2ccccc2)n(-c2ccc(S(N)(=O)=O)cc2)n1 [Example 29, 4-(3-methylthio-5-phenyl-1,2,4-triazole-1-yl)-benzenesulfonamide]	11.1%	17.7%
C#CCOc1nc(-c2ccc(F)cc2)n(-c2ccc(S(N)(=O)=O)cc2)n1 [Example 44, 4-[3-prop-2-ynyloxy-5-(4-fluorophenyl)-1,2,4-triazole-1-yl]-benzenesulfonamide]	14.5%	27.2%
CCOc1ccc(-c2nc(O)nn2-c2ccc(S(N)(=O)=O)cc2)cc1 [Example 17, 4-[3-hydroxy-5-(4-ethoxyphenyl)-1,2,4-triazole-1-yl]-benzenesulfonamide]	10.5%	48.8%
CC(C)Oc1nc(-c2ccccc2)n(-c2ccc(S(C)(=O)=O)cc2)n1 [Example 64, 1-(4-methanesulfonylphenyl)-3-isopropoxy-5-phenyl-1H-1,2,4-triazole]	33.1%	23.4%
COc1ccc(-c2nc(O)nn2-c2ccc(S(N)(=O)=O)cc2)cc1F [Example 20, 4-[3-hydroxy-5-(3-fluoro-4-methoxyphenyl)-1,2,4-triazole-1-yl]-benzenesulfonamide]	11%	26.4%
COc1nc(-c2ccccc2)n(-c2ccc(S(N)(=O)=O)cc2)n1 [Example 25, 4-(3-methoxy-5-phenyl-1,2,4-triazole-1-yl)-benzenesulfonamide]	27.8%	23.2%
CCOc1nc(-c2ccc(F)cc2)n(-c2ccc(S(N)(=O)=O)cc2)n1 [Example 32, 4-[3-ethoxy-5-(4-fluorophenyl)-1,2,4-triazole-1-yl]-benzenesulfonamide]	11.5%	21.4%

The remaining lines, values ahead:

inhibition at 0.01 µM (COX-2)	inhibition at 1 µM (COX-1)	Compound
10.5%	21.2%	COc1nc(-c2ccc(OC)c(F)c2)n(-c2ccc(S(N)(=O)=O)cc2)n1 [Example 28, 4-[3-methoxy-5-(3-fluoro-4-methoxyphenyl)-1,2,4-triazole-1-yl]-benzenesulfonamide]
12.2%	34.2%	COc1ccc(-c2nc(OC(C)C)nn2-c2ccc(S(N)(=O)=O)cc2)cc1 [Example 46, 4-[3-isopropoxy-5-(4-methoxyphenyl)-1,2,4-triazole-1-yl]-benzenesulfonamide]
31.2%	16.4%	COc1ccc(-c2nc(OC)nn2-c2ccc(S(N)(=O)=O)cc2)cc1 [Example 24, 4-[3-methoxy-5-(4-methoxyphenyl)-1,2,4-triazole-1-yl]-benzenesulfonamide]
23.4%	23.4%	COc1nc(-c2ccccc2)n(-c2ccc(S(C)(=O)=O)cc2)n1 [Example 60, 1-(4-methanesulfonylphenyl)-3-methoxy-5-phenyl-1H-1,2,4-triazole]
20.7%	15.5%	COc1ccc(-c2nc(OC3CCCCC3)nn2-c2ccc(S(N)(=O)=O)cc2)cc1 [Example 39, 4-[3-cyclohexyloxy-5-(4-methoxyphenyl)-1,2,4-triazole-1-yl]-benzenesulfonamide]
27.2%	22.6%	COc1ccc(-c2nc(OC)nn2-c2ccc(S(C)(=O)=O)cc2)cc1 [Example 59, 1-(4-methanesulfonylphenyl)-3-methoxy-5-(4-methoxylphenyl)-1H-1,2,4-triazole]
11.5%	11.2%	COc1nc(-c2ccc(Br)cc2)n(-c2ccc(S(N)(=O)=O)cc2)n1 [Example 27, 4-[3-methoxy-5-(4-bromophenyl)-1,2,4-triazole-1-yl]-benzenesulfonamide]
35.1%	13.2%	COc1ccc(-c2nc(O)nn2-c2ccc(S(C)(=O)=O)cc2)cc1 [Example 23, 1-(4-methanesulfonylphenyl)-5-(4-methoxyphenyl)-1H-1,2,4-triazole-3-ol]
